# Source: ChEMBL document CHEMBL1201861, “Genomics of Drug Sensitity in Cancer screening data, Wellcome Trust Sanger Institute”
# Tests used:
# Test in all cases: cells
# COLO-824 = format: functional, cell-based, Homo sapiens
# Description: SANGER: Inhibition of human COLO-824 cell growth in a cell viability assay.
# CTB-1 = format: functional, cell-based, Homo sapiens
# Description: SANGER: Inhibition of human CTB-1 cell growth in a cell viability assay.
# CW-2 = format: functional, cell-based, Homo sapiens;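 further: growth inhibition of CW-2 cells, read out by a cell viability assay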
# Description: SANGER: Inhibition of human CW-2 cell growth in a cell viability assay.
# D-263MG = format: functional, cell-based, Homo sapiens
# Description: SANGER: Inhibition of human D-263MG cell growth in a cell viability assay.
# DMS-79 = format: functional, cell-based, Homo sapiens;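 further: growth inhibition measured with a cell viability assay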
# Description: SANGER: Inhibition of human DMS-79 cell growth in a cell viability assay.
# EW-11 = format: functional, cell-based, Homo sapiens;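 further: growth inhibition of human EW-11 cells, measured with a cell viability assay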
# Description: SANGER: Inhibition of human EW-11 cell growth in a cell viability assay.
# GOTO = format: functional, cell-based, Homo sapiens;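 further: growth inhibition of GOTO cells, read out by a cell viability assay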
# Description: SANGER: Inhibition of human GOTO cell growth in a cell viability assay.
# HAL-01 = format: functional, cell-based, Homo sapiens;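 further: growth inhibition of human HAL-01 cells, read out with a cell viability assay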
# Description: SANGER: Inhibition of human HAL-01 cell growth in a cell viability assay.
# HCC1187 = format: functional, cell-based, Homo sapiens;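 further: growth inhibition of HCC1187 cells, read out with a cell viability assay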
# Description: SANGER: Inhibition of human HCC1187 cell growth in a cell viability assay.
# HuTu80 = format: functional, cell-based, Homo sapiens, HUTU-80;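 further: growth inhibition of HuTu80 human cells, determined with a cell viability readout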
# Description: SANGER: Inhibition of human HUTU-80 cell growth in a cell viability assay.
# IA-LM = format: functional, cell-based, Homo sapiens;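 further: cell viability assay measuring growth inhibition of human IA-LM cells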
# Description: SANGER: Inhibition of human IA-LM cell growth in a cell viability assay.
# IST-MES1 = format: functional, cell-based, Homo sapiens;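 further: growth inhibition of IST-MES1 cells, measured with a cell viability assay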
# Description: SANGER: Inhibition of human IST-MES1 cell growth in a cell viability assay.
# J-RT3-T3-5 = format: functional, cell-based, Homo sapiens;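 further: cell viability assay measuring growth inhibition of human J-RT3-T3-5 cells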
# Description: SANGER: Inhibition of human J-RT3-T3-5 cell growth in a cell viability assay.
# JAR = format: functional, cell-based, Homo sapiens;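 further: growth inhibition of human JAR cells determined with a cell viability assay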
# Description: SANGER: Inhibition of human JAR cell growth in a cell viability assay.
# KARPAS-45 = format: functional, cell-based, Homo sapiens;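 further: inhibition of cell line growth, read out through a viability assay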
# Description: SANGER: Inhibition of human KARPAS-45 cell growth in a cell viability assay.
# KLE = format: functional, cell-based, Homo sapiens;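 further: growth inhibition of human KLE cells, read out with a cell viability assay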
# Description: SANGER: Inhibition of human KLE cell growth in a cell viability assay.
# KY821 = format: functional, cell-based, Homo sapiens;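 further: growth inhibition of human KY821 cells, read out by a cell viability assay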
# Description: SANGER: Inhibition of human KY821 cell growth in a cell viability assay.
# L-363 = format: functional, cell-based, Homo sapiens
# Description: SANGER: Inhibition of human L-363 cell growth in a cell viability assay.
# LB373-MEL-D = format: functional, cell-based, Homo sapiens;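 further: growth inhibition of the cell line, read out in a cell viability assay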
# Description: SANGER: Inhibition of human LB373-MEL-D cell growth in a cell viability assay.
# LNCaP-Clone-FGC = format: functional, cell-based, Homo sapiens
# Description: SANGER: Inhibition of human LNCaP-Clone-FGC cell growth in a cell viability assay.
# LS-123 = format: functional, cell-based, Homo sapiens
# Description: SANGER: Inhibition of human LS-123 cell growth in a cell viability assay.
# LU-139 = format: functional, cell-based, Homo sapiens
# Description: SANGER: Inhibition of human LU-139 cell growth in a cell viability assay.
# MEG-01 = format: functional, cell-based, Homo sapiens;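 further: growth inhibition of MEG-01 cells, read out by a cell viability assay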
# Description: SANGER: Inhibition of human MEG-01 cell growth in a cell viability assay.
# MFM-223 = format: functional, cell-based, Homo sapiens
# Description: SANGER: Inhibition of human MFM-223 cell growth in a cell viability assay.
# ML-2 = format: functional, cell-based, Homo sapiens;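 further: growth inhibition of ML-2 cells, measured with a cell viability readout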
# Description: SANGER: Inhibition of human ML-2 cell growth in a cell viability assay.
# MOLT-16 = format: functional, cell-based, Homo sapiens;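 further: growth inhibition of human MOLT-16 cells, read out with a cell viability assay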
# Description: SANGER: Inhibition of human MOLT-16 cell growth in a cell viability assay.
# NB12 = format: functional, cell-based, Homo sapiens;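 further: growth inhibition of human NB12 cells, read out by a cell viability assay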
# Description: SANGER: Inhibition of human NB12 cell growth in a cell viability assay.
# NCI-H526 = format: functional, cell-based, Homo sapiens;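 further: growth inhibition of the human NCI-H526 cell line, measured by a cell viability assay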
# Description: SANGER: Inhibition of human NCI-H526 cell growth in a cell viability assay.
# NCI-N87 = format: functional, cell-based, Homo sapiens;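 further: growth inhibition of human NCI-N87 cells, read out with a cell viability assay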
# Description: SANGER: Inhibition of human NCI-N87 cell growth in a cell viability assay.
# SNU-5 = format: functional, cell-based, Homo sapiens;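 further: cell viability readout used to measure growth inhibition in human NCI-SNU-5 cells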
# Description: SANGER: Inhibition of human NCI-SNU-5 cell growth in a cell viability assay.
# NH-12 = format: functional, cell-based, Homo sapiens;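 further: growth inhibition of NH-12 cells, read out with a cell viability assay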
# Description: SANGER: Inhibition of human NH-12 cell growth in a cell viability assay.
# NMC-G1 = format: functional, cell-based, Homo sapiens;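 further: growth inhibition of the NMC-G1 cell line, measured with a cell viability read-out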
# Description: SANGER: Inhibition of human NMC-G1 cell growth in a cell viability assay.
# ONS-76 = format: functional, cell-based, Homo sapiens;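 further: growth inhibition of human ONS-76 cells, read out with a cell viability assay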
# Description: SANGER: Inhibition of human ONS-76 cell growth in a cell viability assay.
# RCC10RGB = format: functional, cell-based, Homo sapiens;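 further: growth inhibition of human RCC10RGB cells, read out by a cell viability assay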
# Description: SANGER: Inhibition of human RCC10RGB cell growth in a cell viability assay.
# RH-1 = format: functional, cell-based, Homo sapiens;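 further: growth inhibition of human RH-1 cells, read out with a cell viability assay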
# Description: SANGER: Inhibition of human RH-1 cell growth in a cell viability assay.
# RPMI-8866 = format: functional, cell-based, Homo sapiens
# Description: SANGER: Inhibition of human RPMI-8866 cell growth in a cell viability assay.
# SK-N-FI = format: functional, cell-based, Homo sapiens;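 further: cell viability assay measuring growth inhibition of human SK-N-FI cells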
# Description: SANGER: Inhibition of human SK-N-FI cell growth in a cell viability assay.
# SK-NEP-1 = format: functional, cell-based, Homo sapiens;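 further: growth inhibition of human SK-NEP-1 cells, read out by a cell viability assay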
# Description: SANGER: Inhibition of human SK-NEP-1 cell growth in a cell viability assay.
# SNU-C2B = format: functional, cell-based, Homo sapiens;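 further: cell viability readout used to measure compound-driven suppression of SNU-C2B cell proliferation, IC50 marking half-maximal growth inhibition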
# Description: SANGER: Inhibition of human SNU-C2B cell growth in a cell viability assay.
# TE-1 = format: functional, cell-based, Homo sapiens;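 further: growth inhibition of the human TE-1 cell line, read out with a cell viability assay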
# Description: SANGER: Inhibition of human TE-1 cell growth in a cell viability assay.
# 8-MG-BA = format: functional, cell-based, Homo sapiens;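 further: growth inhibition of 8-MG-BA cells, read out with a cell viability assay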
# Description: SANGER: Inhibition of human 8-MG-BA cell growth in a cell viability assay.
# BB65-RCC = format: functional, cell-based, Homo sapiens;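 further: growth inhibition of the cell line, measured with a cell viability assay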
# Description: SANGER: Inhibition of human BB65-RCC cell growth in a cell viability assay.
# BE-13 = format: functional, cell-based, Homo sapiens;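 further: growth inhibition of human BE-13 cells, measured with a cell viability assay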
# Description: SANGER: Inhibition of human BE-13 cell growth in a cell viability assay.
# BV-173 = format: functional, cell-based, Homo sapiens
# Description: SANGER: Inhibition of human BV-173 cell growth in a cell viability assay.
# Becker = format: functional, cell-based, Homo sapiens;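 further: growth inhibition of Becker cells, read out with a cell viability assay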
# Description: SANGER: Inhibition of human Becker cell growth in a cell viability assay.
# C8166 = format: functional, cell-based, Homo sapiens;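 further: growth inhibition of human C8166 cells measured by a cell viability assay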
# Description: SANGER: Inhibition of human C8166 cell growth in a cell viability assay.
# TE-6 = format: functional, cell-based, Homo sapiens;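 further: growth inhibition of TE-6 cells, read out with a cell viability assay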
# Description: SANGER: Inhibition of human TE-6 cell growth in a cell viability assay.
# COLO-684 = format: functional, cell-based, Homo sapiens
# Description: SANGER: Inhibition of human COLO-684 cell growth in a cell viability assay.
compound,measurement,setting,value
Cc1cc([N+](=O)[O-])ccc1NS(=O)(=O)c1cc(Cl)ccc1Cl,IC50,"COLO-824; Homo sapiens, COLO-824",18.1 µM
same,IC50,"CTB-1; Homo sapiens, CTB-1",30.5 µM
same,IC50,"CW-2; Homo sapiens, CW-2",> 32 µM
same,IC50,"D-263MG; Homo sapiens, D-263MG",10.7 µM
same,IC50,"DMS-79; Homo sapiens, DMS-79",> 32 µM
same,IC50,"EW-11; Homo sapiens, EW-11",> 32 µM
same,IC50,"GOTO; Homo sapiens, GOTO",> 32 µM
same,IC50,"HAL-01; Homo sapiens, HAL-01",12.4 µM
same,IC50,"HCC1187; Homo sapiens, HCC1187",20.8 µM
same,IC50,"HuTu80; Homo sapiens, HuTu80",1.15 µM
same,IC50,"IA-LM; Homo sapiens, IA-LM",3.05 µM
same,IC50,"IST-MES1; Homo sapiens, IST-MES1",4.85 µM
same,IC50,"J-RT3-T3-5; Homo sapiens, J-RT3-T3-5",5.35 µM
same,IC50,"JAR; Homo sapiens, JAR",23 µM
same,IC50,"KARPAS-45; Homo sapiens, KARPAS-45",4.51 µM
same,IC50,"KLE; Homo sapiens, KLE",6.59 µM
same,IC50,"KY821; Homo sapiens, KY821",> 32 µM
same,IC50,"L-363; Homo sapiens, L-363",8.56 µM
same,IC50,"LB373-MEL-D; Homo sapiens, LB373-MEL-D",2.86 µM
same,IC50,"LNCaP-Clone-FGC; Homo sapiens, LNCaP-Clone-FGC",21.6 µM
same,IC50,"LS-123; Homo sapiens, LS-123",9.22 µM
same,IC50,"LU-139; Homo sapiens, LU-139",12.9 µM
same,IC50,"MEG-01; Homo sapiens, MEG-01",> 32 µM
same,IC50,"MFM-223; Homo sapiens, MFM-223",> 32 µM
same,IC50,"ML-2; Homo sapiens, ML-2",7.87 µM
same,IC50,"MOLT-16; Homo sapiens, MOLT-16",5.12 µM
same,IC50,"NB12; Homo sapiens, NB12",11.1 µM
same,IC50,"NCI-H526; Homo sapiens, NCI-H526",28.2 µM
same,IC50,"NCI-N87; Homo sapiens, NCI-N87",7.25 µM
same,IC50,"SNU-5; Homo sapiens, SNU-5",> 32 µM
same,IC50,"NH-12; Homo sapiens, NH-12",14.6 µM
same,IC50,"NMC-G1; Homo sapiens, NMC-G1",9.89 µM
same,IC50,"ONS-76; Homo sapiens, ONS-76",6.44 µM
same,IC50,"RCC10RGB; Homo sapiens, RCC10RGB",> 32 µM
same,IC50,"RH-1; Homo sapiens, RH-1",10.2 µM
same,IC50,"RPMI-8866; Homo sapiens, RPMI-8866",3.32 µM
same,IC50,"SK-N-FI; Homo sapiens, SK-N-FI",16.7 µM
same,IC50,"SK-NEP-1; Homo sapiens, SK-NEP-1",19.2 µM
same,IC50,"SNU-C2B; Homo sapiens, SNU-C2B",4.29 µM
same,IC50,"TE-1; Homo sapiens, TE-1",7.65 µM
same,IC50,"8-MG-BA; Homo sapiens, 8-MG-BA",3.7 µM
same,IC50,"BB65-RCC; Homo sapiens, BB65-RCC",6.37 µM
same,IC50,"BE-13; Homo sapiens, BE-13",7.53 µM
same,IC50,"BV-173; Homo sapiens, BV-173",> 32 µM
same,IC50,"Becker; Homo sapiens, Becker",16.5 µM
same,IC50,"C8166; Homo sapiens, C8166",6.1 µM
same,IC50,"TE-6; Homo sapiens, TE-6",19.2 µM
same,IC50,"COLO-684; Homo sapiens, COLO-684",12.1 µM
BLEOMYCIN,IC50,COLO-824; colo-824,53.3 µM
same,IC50,CTB-1; ctb-1,0.0269 µM
same,IC50,CW-2; cw-2,564 µM
same,IC50,D-263MG; d-263mg,142 µM
same,IC50,DMS-79; dms-79,325 µM
same,IC50,EW-11; ew-11,6.41 µM
same,IC50,GOTO; goto,0.55 µM
same,IC50,HAL-01; hal-01,0.000453 µM
same,IC50,HCC1187; hcc1187,32.9 µM
same,IC50,HuTu80; hutu-80,0.000136 µM
same,IC50,IA-LM; ia-lm,3.4 µM
same,IC50,IST-MES1; ist-mes1,206 µM
same,IC50,J-RT3-T3-5; j-rt3-t3-5,0.712 µM
same,IC50,JAR; jar,206 µM
same,IC50,KARPAS-45; karpas-45,213 µM
same,IC50,KLE; kle,21.2 µM
same,IC50,KY821; ky821,471 µM
same,IC50,L-363; l-363,187 µM
same,IC50,LB373-MEL-D; lb373-mel-d,56.4 µM
same,IC50,LNCaP-Clone-FGC; lncap-clone-fgc,18.3 µM
same,IC50,LS-123; ls-123,23.4 µM
same,IC50,LU-139; lu-139,3440 µM
same,IC50,MEG-01; meg-01,0.395 µM
same,IC50,MFM-223; mfm-223,11000 µM
same,IC50,ML-2; ml-2,0.132 µM
same,IC50,MOLT-16; molt-16,29.5 µM
same,IC50,NB12; nb12,82.4 µM
same,IC50,NCI-H526; nci-h526,1.28 µM
same,IC50,NCI-N87; nci-n87,2.96 µM
same,IC50,SNU-5; snu-5,0.643 µM
same,IC50,NH-12; nh-12,2.21 µM
same,IC50,NMC-G1; nmc-g1,0.0119 µM
same,IC50,ONS-76; ons-76,0.854 µM
same,IC50,RCC10RGB; rcc10rgb,70.6 µM
same,IC50,RH-1; rh-1,0.152 µM
same,IC50,RPMI-8866; rpmi-8866,7.91 µM
same,IC50,SK-N-FI; sk-n-fi,2100 µM
same,IC50,SK-NEP-1; sk-nep-1,31.9 µM
same,IC50,SNU-C2B; snu-c2b,2.32 µM
same,IC50,TE-1; te-1,6.43 µM
same,IC50,8-MG-BA; 8-mg-ba,1.48 µM
same,IC50,BB65-RCC; bb65-rcc,21.4 µM
same,IC50,BE-13; be-13,0.399 µM
same,IC50,BV-173; bv-173,0.855 µM
same,IC50,Becker; becker,26.9 µM
same,IC50,C8166; c8166,7.77 µM
same,IC50,TE-6; te-6,12.4 µM
same,IC50,COLO-684; colo-684,237 µM
